Measured values taken from patent publication US12054560B2, “Bifunctional molecules recruiting antibodies and targeting cancer cells” (JIANGNAN UNIVERSITY, priority 2017, dated 2024).
Bridge positions count the residues as written; N and C are the ends. Ends that are not written are not given here.

Legend:
[1] = system: HUVEC cells; assay: CDC assay on HUVEC cells; type: cell-based; details: 250 nM, anti-DNP antibody, 10% complement, cck8 method, FIG. 9
Description: CDC assay implementation: (1) HUVEC cells were seeded in 96-well plates at a concentration of 5,000 cells/well. After the cells were fully attached, added with NGR oligopeptide (NGR peptide, amino acid sequence: GGG-cyclo-(CNGRC) (SEQ ID NO:8)) or NGR-DNP compound at a final concentration of 250 nM and added a certain concentration of anti-DNP antibody at the same time. After 2 hours of incubation at 37° C., a final concentration of 10% of the complement solution was added and incubated for 1 hour at 37° C. After the incubation, the cell viability was measured by the cck8 method.

[2] = system: HUVEC cells; assay: ADCC assay on HUVEC cells; type: cell-based; details: 250 nM, anti-DNP antibody, PBMC, LDH method, FIG. 9
Description: ADCC assay implementation: (1) HUVEC cells were seeded in 96-well plates at a concentration of 10,000 cells/well. After the cells were fully attached, added with NGR oligopeptide (NGR peptide, amino acid sequence: GGG-cyclo-(CNGRC) (SEQ ID NO:8)) or NGR-DNP compound at a final concentration of 250 nM and immediately added a certain concentration of anti-DNP antibody. (2) After incubation for a period of time, freshly extracted PBMC cells were added at a certain effect target ratio for a certain period of time. (3) The supernatant was removed by centrifugation, and cytotoxicity was measured by the LDH method.

[3] = system: HUVEC (high expression of CD13); assay: Flow cytometry, recruitment of anti-DNP antibody on HUVEC cells; type: cell-based; details: 250 nM, anti-DNP antibody 20 μg/mL, FIG. 9
Description: Cell assay implementation: cell culture: commercial cells HUVEC (high expression of CD13) was cultured in DMEM complete medium. All cell culture conditions were 37° C., 5% CO2. Flow cytometry assay: (1) The cells were digested with trypsin, resuspended in flow medium diluted to 1×10^5 cells. 400 μL of cells (40,000 cells) were added to a sterile EP tube. (2) NGR oligopeptide (NGR peptide, amino acid sequence: GGG-cyclo-(CNGRC) (SEQ ID NO:8)) or NGR-DNP were added at a final concentration of 250 nM. In the negative control group, cells were treated with PBS. The cells were added anti-DNP (anti-DNP) antibody at a concentration of 20 μg/mL in all groups, incubate on ice for 1 h. then the cells were washed and incubated with fluorescent secondary antibody for 0.5 h. (3) The cells were thoroughly washed gently with a flow buffer, resuspended, and analyzed by instruments.

[4] = target: T1, CD13 receptor, P15144; assay: cell-based or functional assay
T1 chain: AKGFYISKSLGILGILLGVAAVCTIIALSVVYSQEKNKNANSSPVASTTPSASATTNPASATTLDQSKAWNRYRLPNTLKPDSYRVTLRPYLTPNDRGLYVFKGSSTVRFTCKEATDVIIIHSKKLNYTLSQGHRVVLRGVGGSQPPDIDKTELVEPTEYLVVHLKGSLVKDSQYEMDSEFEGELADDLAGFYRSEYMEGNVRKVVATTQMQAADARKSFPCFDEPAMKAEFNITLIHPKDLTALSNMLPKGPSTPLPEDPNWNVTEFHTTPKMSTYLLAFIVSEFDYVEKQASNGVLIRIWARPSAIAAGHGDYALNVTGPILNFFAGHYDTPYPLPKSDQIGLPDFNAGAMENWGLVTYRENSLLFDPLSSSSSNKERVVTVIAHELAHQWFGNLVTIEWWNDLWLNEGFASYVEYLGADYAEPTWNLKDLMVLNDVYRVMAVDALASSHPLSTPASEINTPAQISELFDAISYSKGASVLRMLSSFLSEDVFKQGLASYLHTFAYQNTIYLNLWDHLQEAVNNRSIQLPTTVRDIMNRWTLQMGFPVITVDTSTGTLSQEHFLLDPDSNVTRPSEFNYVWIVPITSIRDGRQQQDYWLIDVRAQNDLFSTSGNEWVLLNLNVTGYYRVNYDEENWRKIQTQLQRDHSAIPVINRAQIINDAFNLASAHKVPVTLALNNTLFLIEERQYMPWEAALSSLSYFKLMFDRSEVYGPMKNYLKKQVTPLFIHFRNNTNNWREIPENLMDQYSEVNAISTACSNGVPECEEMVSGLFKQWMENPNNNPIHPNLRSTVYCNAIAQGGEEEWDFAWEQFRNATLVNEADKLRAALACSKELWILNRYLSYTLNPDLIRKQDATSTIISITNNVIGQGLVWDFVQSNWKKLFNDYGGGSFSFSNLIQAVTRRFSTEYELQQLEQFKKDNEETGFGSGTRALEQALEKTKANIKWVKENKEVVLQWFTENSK

[5] = system: SKBR3 (HER2 positive) cells; assay: Flow cytometry, recruitment of anti-Rha IgG on SKBR3 cells; type: cell-based; details: 250 nM, Alexa 488-conjugated rabbit anti-Rha IgG, FIG. 5
Description: SKBR3 (HER2 positive) and MCF7 cells (HER2 negative) were grown in DMEM supplemented with 10% FBS, 1% penicillin-streptomycin. All cells were cultured at 37° C. in a 5% CO2 humidified atmosphere.
(1) Cells were cultured and detached with trypsin-EDTA and then resuspended to 1.0×10^5 cells/mL. Forty thousand of these cells were added into tubes. (2) Nanobody C7b and Rha conjugated C7b were then added to a final concentration of 250 nM, followed which Alexa 488-conjugated rabbit anti-Rha IgG antibodies were added. In the negative control group, cells were treated with PBS instead of nanobody. These cells were incubated on ice for 60 min, (3) washed with flow cytometry buffer and then analyzed using an Accuri C6 flow cytometer.

## NGR-DNP: DNP-TEG-COOH coupled to peptide GGGCNGRC, oxidized with iodine to the cyclic form (GGGCNGRC-OH; disulfide 4-8 (inferred); also: DNP-TEG-COOH coupled to peptide, site not given here)
[1]
  CDC cell lysis rate: approximately 60%
[2]
  ADCC cell lysis rate: approximately 60%
[3]
  recruitment of antibodies and targeting of tumor cells: can recruit antibodies and target tumor cells

## GGGCNGRC (modifications not checked) [NGR-DNP]
[4]
  CDC and ADCC cell lysis rate: 60%

B1: C7b: anti-HER2 nanobody C7b, SEQ ID NO: 2 (related NCBI sequence ID: AFN61318.1) (protein)
VHH: MQVQLVQSGGGLVQAGGSLRLSCAASGRTFSSYAMAWFRQAPGKEREFVAAISWSGANIYVADSVKGRFTISRDNAKDTVYLQMNSLKPEDTAVYYCAVKLGFAPVEERQYDYWGQGTQVTVSSLPETGG
modifications: The HER2-specific nanobody C7b sequence was genetically engineered to contain at its C-terminus a sorting signal for further sortase A-mediated ligation.
[5]
  fluorescence intensity increase compared to negative control (accumulation of anti-Rha IgGs on cells): no fluorescence intensity increase
